This is an account of results in patent US20140154312A1, “ORAL TARGETTED DRUG DELIVERY SYSTEM” (priority 2010, published 2014).

Entries after “also recorded” stand apart in the source; their conditions may differ.

Data set [1] has as its system Albino Wister Rats. Nature of the data set: Unwanted side-effects on oral administration in rats (hair, body weight, diarrhea, caecal contents, colon histopathology). The data set is classed as in vivo. The conditions noted are these: p.o., 5-FU 8 mg/day for 5 days, probiotics 1 g/day where given. Here is the method: (§1) To answer the questions as above, the inventors adopted an innovative experimental approach using a ‘living biological system’ comprising rats. All the experimental procedures were approved by the Institutional Animal Ethics Committee vide Approval Number 954/ac/06/CPCSEA/09/19. The experimental study was conducted on thirty Wister Albino rats. The animals were divided into 6 groups of five each.
(§2) The dosages were freshly prepared every day by suspending in milk. They were administered by oral gavage needle for first and subsequent exposure for a duration of five days each, at an interval of 20 days.
To address whether the unwanted side-effects of colonic drugs e.g. diarrhea, hair loss etc. could also be reduced or eliminated using the ‘innovative approach’ of the present invention, trials were conducted in animals (rats) using 5-FU as a ‘model’.

Data set [2] concerns colonic micro flora (caecal contents of the rat). Nature of the data set: In vitro dissolution (drug release) of natural gum based 5-FU delivery systems in medium containing caecal contents of orally treated rats. The data set is classed as physicochemical, Wister Albino rats. The conditions noted are these: label = treatment given p.o. to the rats whose caecal contents (4% w/v) were used, 5-FU 8 mg/day, probiotics 1 g/day, pH 1.2 for 2 h, pH 6.8 for 3 h, then caecal medium. Here is the method:
as §1, §2
2 animals from each group were humanely sacrificed for the collection of caecal contents in sterile petri plates, which was immediately utilized for the dissolution studies. For dissolution studies, compression coated tablets of 5-FU with natural gums and microspheres of 5-FU with natural gums were used. The experiments were carried out in 250 ml beaker immersed in water maintained in the jars of dissolution test apparatus. Initial studies were carried out in 150 ml of 0.1N HCl (pH 1.2) for 2 h. After this, NaOH was added to the dissolution media and the pH was adjusted to 6.8. The volume was made up to 200 ml with phosphate buffer of pH 6.8. The study was continued for 3 hours after which, caecal contents (4% w/v) were added. […]

In the case of `O=c1[nH]cc(F)c(=O)[nH]1` [5-FU powder, 5-Fluorouracil], in data set [1], the body weight loss entry is on record as “loss”; the diarrhea result is “bloody diarrhea”; the “histopathological examination of the colon” value is “ulceration and loss of epithelial lining; also recorded: diffuse ulceration of the colonic mucosa with loss of lining epithelium”; the loss of hair entry is “loss of hair”. Further, in data set [1] (listed as 5-FU), the body weight loss result was “loss of weight”; the loss of hair result was “loss of weight and hair”. Moreover, the “% drug released in 24 h on exposure to caecal contents of the rat: Compression coated tablets of 5-FU coated with natural gums” value in data set [2] (excipient-only control rats: 83) worked out at 52%. Further, the “% drug released in 24 h on exposure to caecal contents of the rat: 5-FU loaded microspheres comprising the drug and natural gums” value in data set [2] (excipient-only control rats: 92.20) was 41.56%.
